# Source: patent US7112603B2, “Prodrugs of 3-(pyrrol-2-ylmethylidene)-2-indolinone derivatives” (Agouron Pharmaceuticals, Inc., priority 2000, dated 2006)
# Experiments:
# [1] = Plasma Stability Test (IV dosing of prodrug, HPLC analysis of blood plasma); type: in vivo; conditions: dogs, IV at 2 mg/mL, HPLC analysis of blood plasma for 4 hours following dosing
# Description: The prodrug (3Z)-3-[(3,5-dimethyl-1H-pyrrol-2-yl)-methylidene]-1-(1-pyrrolidinylmethyl)-1,3-dihydro-2H-indol-2-one was administered IV at 2 mg/mL to dogs. Levels of both prodrug and drug (3(Z)-3-[(3,5-dimethyl-1H-pyrrol-2-yl)-methylidene]-1,3-dihydro-2H-indol-2-one) were followed by HPLC analysis of blood plasma for 4 hours following dosing.
melting point,half-life for conversion of the prodrug to drug [1],prodrug converted into drug (from area under the curve of drug concentration vs. time) [1],Structure (SMILES)
,7.3 min,80%,"Cc1cc(C)c(/C=C2\C(=O)N(CN3CCCC3)c3ccccc32)[nH]1 [Example 14, (3Z)-3-[(3,5-dimethyl-1H-pyrrol-2-yl)-methylidene]-1-(1-pyrrolidinylmethyl)-1,3-dihydro-2H-indol-2-one]"
200 to 202 °C,,,Cc1cc(C)c(/C=C2\C(=O)N(CO)c3ccccc32)[nH]1

# The remaining lines, values behind:
Structure (SMILES),melting point,half-life for conversion of the prodrug to drug [1],prodrug converted into drug (from area under the curve of drug concentration vs. time) [1]
Cc1cc(C)c(/C=C2\C(=O)N(COC(=O)CCC(=O)O)c3ccccc32)[nH]1,160 to 162 °C,,
CC(=O)OC(C)N1C(=O)/C(=C\c2[nH]c(C)cc2C)c2ccccc21 (stereo not drawn),107 to 110 °C,,
Cc1cc(C)c(/C=C2\C(=O)N(C(=O)CNC(=O)OCc3ccccc3)c3ccccc32)[nH]1,193 to 196 °C,,
